Reference: patent publication US20070112523A1 (priority 2003, published 2007)

How the values were obtained:
[1] = system: vaccinia virus expressing the green fluorescent protein (vvGFP); assay: microbe, parasite or virus in culture; type: cell-based; details: for IC50: Orthopoxvirus vaccinia, BSC-40, 24 h
in vitro = details: African green monkey
[2] = in vivo, po; cited from earlier work

SMILES	anti-viral effect in a cell culture assay (inhibition of viral replication) [1]	IC50 [1] [µM]	CC50 (in vitro) [µM]	bio-availability when administered orally [2]
COc1c(CCNC(=O)c2cc3ccccc3cc2O)cccc1-c1ccc([N+](=O)[O-])cc1 [TTP-A, 3-hydroxy-naphthalene-2-carboxylic acid [2-(2-methoxy-4′-nitro-biphenyl-3-yl)-ethyl]-amide]	have an anti-viral effect	~12	~900	
COC(=O)C(Cc1ccc(-c2ccc(F)c(Cl)c2)cc1)NC(=O)c1cc(-c2ccc(C(F)(F)F)cc2)ccc1O (stereo not shown) [TTP-B, 3-(3′-chloro-4′-fluoro-biphenyl-4-yl)-2-[(4-hydroxy-4′-trifluoromethyl-biphenyl-3-carbonyl)-amino]-propionic acid methyl ester]	have an anti-viral effect	~4.6	~600	
Nc1ccn(C[C@@H](CO)OCP(=O)(O)O)c(=O)n1 [cidofovir]				low bio-availability
